The supplement of paper PMC13386468

Key:
Assay in all cases: IC50 for competition of protein binding to Kinobeads
Conditions in all cases: assay detail: Kinobeads competition in P. falciparum blood-stage lysate
UniProt O96271 = target: UniProt O96271
UniProt Q8IM55 = target: UniProt Q8IM55
UniProt Q8I3Z5 = target: UniProt Q8I3Z5
UniProt Q8IFM0 = target: UniProt Q8IFM0
UniProt C6KTE1 = target: UniProt C6KTE1
UniProt Q8IIG6 = target: UniProt Q8IIG6
UniProt Q8I3I5 = target: UniProt Q8I3I5
UniProt Q8IE22 = target: UniProt Q8IE22
UniProt Q8I423 = target: UniProt Q8I423
UniProt Q8IEU2 = target: UniProt Q8IEU2
UniProt Q8IE18 = target: UniProt Q8IE18
UniProt Q8I2Z8 = target: UniProt Q8I2Z8
UniProt Q8IHR5 = target: UniProt Q8IHR5
UniProt O97256 = target: UniProt O97256
UniProt Q8IJN9 = target: UniProt Q8IJN9
UniProt Q8ILP3 = target: UniProt Q8ILP3
UniProt Q8IEH3 = target: UniProt Q8IEH3
UniProt Q8I5F9 = target: UniProt Q8I5F9
UniProt Q8IC16 = target: UniProt Q8IC16
UniProt Q8IDF6 = target: UniProt Q8IDF6
UniProt Q8IEQ1 = target: UniProt Q8IEQ1
UniProt Q8I4V7 = target: UniProt Q8I4V7
UniProt Q8IC35 = target: UniProt Q8IC35
UniProt Q8IAW7 = target: UniProt Q8IAW7
UniProt Q8I1T4 = target: UniProt Q8I1T4
UniProt Q8IDX8 = target: UniProt Q8IDX8
UniProt Q8ID31 = target: UniProt Q8ID31
UniProt Q8I305 = target: UniProt Q8I305
UniProt Q8I2A1 = target: UniProt Q8I2A1
UniProt Q7K6A4 = target: UniProt Q7K6A4
UniProt Q8I2J3 = target: UniProt Q8I2J3
UniProt Q8IAV1 = target: UniProt Q8IAV1
UniProt Q8IIR7 = target: UniProt Q8IIR7
UniProt Q8I328 = target: UniProt Q8I328
UniProt Q8IDI5 = target: UniProt Q8IDI5
UniProt Q6ZLZ9 = target: UniProt Q6ZLZ9
UniProt Q8I367 = target: UniProt Q8I367
UniProt Q8IK91 = target: UniProt Q8IK91
UniProt C0H491 = target: UniProt C0H491
UniProt Q8IM66 = target: UniProt Q8IM66
UniProt Q8IM23 = target: UniProt Q8IM23
UniProt O96221 = target: UniProt O96221
UniProt Q8I2I2 = target: UniProt Q8I2I2
UniProt O97313 = target: UniProt O97313
UniProt Q8ILW9 = target: UniProt Q8ILW9
UniProt O77344 = target: UniProt O77344
UniProt Q8I467 = target: UniProt Q8I467
UniProt C6KT50 = target: UniProt C6KT50
UniProt Q8I4U5 = target: UniProt Q8I4U5
UniProt C6KT76 = target: UniProt C6KT76
UniProt Q8I431 = target: UniProt Q8I431

Measured: IC50
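Further: native unpurified kinases from lysate captured on beads bearing immobilized kinase inhibitors, with bead-bound kinases quantified by mass spectrometry across compound doses.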

UniProt Q8I2J3, sequence (Q8I2J3 whole entry): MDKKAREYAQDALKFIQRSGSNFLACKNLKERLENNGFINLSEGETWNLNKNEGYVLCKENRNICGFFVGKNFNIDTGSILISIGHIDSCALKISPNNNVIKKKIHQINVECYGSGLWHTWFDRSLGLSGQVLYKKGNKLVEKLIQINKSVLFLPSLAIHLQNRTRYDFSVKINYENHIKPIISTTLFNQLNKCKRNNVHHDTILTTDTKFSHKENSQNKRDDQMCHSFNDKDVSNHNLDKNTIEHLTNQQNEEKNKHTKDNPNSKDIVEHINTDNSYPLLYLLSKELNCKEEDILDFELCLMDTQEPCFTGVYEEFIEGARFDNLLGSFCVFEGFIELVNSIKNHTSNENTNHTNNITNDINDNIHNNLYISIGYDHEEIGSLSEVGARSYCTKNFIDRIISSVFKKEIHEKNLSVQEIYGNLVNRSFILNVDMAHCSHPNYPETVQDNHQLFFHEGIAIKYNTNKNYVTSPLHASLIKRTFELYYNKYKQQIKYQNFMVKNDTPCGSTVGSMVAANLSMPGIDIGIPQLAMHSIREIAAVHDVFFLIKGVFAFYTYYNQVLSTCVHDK
UniProt Q8IDF6, sequence (Q8IDF6 whole entry): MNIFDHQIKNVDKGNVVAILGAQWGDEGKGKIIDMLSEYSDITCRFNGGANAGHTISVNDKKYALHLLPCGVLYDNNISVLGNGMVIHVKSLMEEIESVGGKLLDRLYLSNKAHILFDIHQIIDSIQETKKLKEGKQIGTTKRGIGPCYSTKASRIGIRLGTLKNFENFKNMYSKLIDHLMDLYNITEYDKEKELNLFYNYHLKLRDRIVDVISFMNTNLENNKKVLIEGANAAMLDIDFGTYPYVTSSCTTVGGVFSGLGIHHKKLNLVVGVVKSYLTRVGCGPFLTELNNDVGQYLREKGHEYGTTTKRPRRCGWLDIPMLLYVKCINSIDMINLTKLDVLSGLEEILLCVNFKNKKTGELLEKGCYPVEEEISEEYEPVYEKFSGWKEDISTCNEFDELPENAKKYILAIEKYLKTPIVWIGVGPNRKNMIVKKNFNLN
UniProt Q8I467, sequence (Q8I467 whole entry): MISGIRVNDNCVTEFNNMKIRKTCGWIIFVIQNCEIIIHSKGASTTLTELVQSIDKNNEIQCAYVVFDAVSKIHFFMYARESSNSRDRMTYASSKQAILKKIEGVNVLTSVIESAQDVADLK
UniProt Q8I3Z5, sequence (Q8I3Z5 whole entry): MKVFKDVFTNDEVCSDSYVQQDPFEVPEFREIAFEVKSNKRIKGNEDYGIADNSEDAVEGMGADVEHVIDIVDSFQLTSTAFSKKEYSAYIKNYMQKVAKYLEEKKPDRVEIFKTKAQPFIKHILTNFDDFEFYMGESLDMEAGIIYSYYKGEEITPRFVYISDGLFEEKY
UniProt O97313, sequence (O97313 whole entry): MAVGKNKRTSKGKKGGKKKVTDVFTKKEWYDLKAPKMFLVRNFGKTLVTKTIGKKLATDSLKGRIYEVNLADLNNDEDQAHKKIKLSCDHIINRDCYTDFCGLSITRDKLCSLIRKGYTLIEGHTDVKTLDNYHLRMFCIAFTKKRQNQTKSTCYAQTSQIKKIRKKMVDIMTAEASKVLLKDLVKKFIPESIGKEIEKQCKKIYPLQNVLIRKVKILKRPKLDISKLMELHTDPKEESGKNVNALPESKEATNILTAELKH
UniProt Q8IIR7, sequence (Q8IIR7 whole entry): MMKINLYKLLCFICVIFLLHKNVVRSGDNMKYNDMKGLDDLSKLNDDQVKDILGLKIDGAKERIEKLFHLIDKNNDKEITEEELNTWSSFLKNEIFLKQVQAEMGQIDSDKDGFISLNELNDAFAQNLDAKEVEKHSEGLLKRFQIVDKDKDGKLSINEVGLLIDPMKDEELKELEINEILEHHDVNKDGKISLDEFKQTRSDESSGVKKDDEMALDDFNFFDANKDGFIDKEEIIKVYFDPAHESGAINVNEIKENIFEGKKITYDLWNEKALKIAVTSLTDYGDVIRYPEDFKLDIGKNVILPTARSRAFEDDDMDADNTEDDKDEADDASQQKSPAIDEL
UniProt C6KT50, sequence (C6KT50 whole entry): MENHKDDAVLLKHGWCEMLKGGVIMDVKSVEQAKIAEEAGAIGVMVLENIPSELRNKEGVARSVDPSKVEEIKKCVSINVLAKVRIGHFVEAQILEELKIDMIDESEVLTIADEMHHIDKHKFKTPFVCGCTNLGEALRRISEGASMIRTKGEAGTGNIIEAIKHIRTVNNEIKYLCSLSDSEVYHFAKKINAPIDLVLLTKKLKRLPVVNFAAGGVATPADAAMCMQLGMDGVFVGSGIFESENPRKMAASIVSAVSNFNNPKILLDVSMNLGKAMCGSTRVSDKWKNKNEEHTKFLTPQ
UniProt Q8I423, sequence (Q8I423 whole entry): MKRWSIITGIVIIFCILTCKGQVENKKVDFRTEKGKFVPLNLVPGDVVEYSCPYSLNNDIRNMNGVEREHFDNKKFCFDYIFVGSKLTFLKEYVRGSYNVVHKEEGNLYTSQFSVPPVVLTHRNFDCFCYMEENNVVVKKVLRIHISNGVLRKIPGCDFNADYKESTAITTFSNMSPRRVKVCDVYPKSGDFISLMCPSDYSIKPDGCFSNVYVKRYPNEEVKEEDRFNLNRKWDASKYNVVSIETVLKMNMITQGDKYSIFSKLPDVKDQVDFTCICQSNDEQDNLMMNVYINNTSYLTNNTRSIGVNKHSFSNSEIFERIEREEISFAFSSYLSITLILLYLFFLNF
UniProt Q8ILW9, sequence (Q8ILW9 whole entry): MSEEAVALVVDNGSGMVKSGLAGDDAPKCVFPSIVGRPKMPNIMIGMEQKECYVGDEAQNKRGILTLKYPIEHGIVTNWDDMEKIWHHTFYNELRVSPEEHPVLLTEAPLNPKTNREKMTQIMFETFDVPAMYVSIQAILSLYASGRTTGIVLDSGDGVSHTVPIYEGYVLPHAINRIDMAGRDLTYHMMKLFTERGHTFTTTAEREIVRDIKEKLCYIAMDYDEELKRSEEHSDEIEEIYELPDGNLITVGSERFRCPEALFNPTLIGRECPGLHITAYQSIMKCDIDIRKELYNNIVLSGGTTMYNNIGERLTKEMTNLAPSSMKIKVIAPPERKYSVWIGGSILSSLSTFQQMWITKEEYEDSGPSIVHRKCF
UniProt Q8ILP3, sequence (Q8ILP3 whole entry): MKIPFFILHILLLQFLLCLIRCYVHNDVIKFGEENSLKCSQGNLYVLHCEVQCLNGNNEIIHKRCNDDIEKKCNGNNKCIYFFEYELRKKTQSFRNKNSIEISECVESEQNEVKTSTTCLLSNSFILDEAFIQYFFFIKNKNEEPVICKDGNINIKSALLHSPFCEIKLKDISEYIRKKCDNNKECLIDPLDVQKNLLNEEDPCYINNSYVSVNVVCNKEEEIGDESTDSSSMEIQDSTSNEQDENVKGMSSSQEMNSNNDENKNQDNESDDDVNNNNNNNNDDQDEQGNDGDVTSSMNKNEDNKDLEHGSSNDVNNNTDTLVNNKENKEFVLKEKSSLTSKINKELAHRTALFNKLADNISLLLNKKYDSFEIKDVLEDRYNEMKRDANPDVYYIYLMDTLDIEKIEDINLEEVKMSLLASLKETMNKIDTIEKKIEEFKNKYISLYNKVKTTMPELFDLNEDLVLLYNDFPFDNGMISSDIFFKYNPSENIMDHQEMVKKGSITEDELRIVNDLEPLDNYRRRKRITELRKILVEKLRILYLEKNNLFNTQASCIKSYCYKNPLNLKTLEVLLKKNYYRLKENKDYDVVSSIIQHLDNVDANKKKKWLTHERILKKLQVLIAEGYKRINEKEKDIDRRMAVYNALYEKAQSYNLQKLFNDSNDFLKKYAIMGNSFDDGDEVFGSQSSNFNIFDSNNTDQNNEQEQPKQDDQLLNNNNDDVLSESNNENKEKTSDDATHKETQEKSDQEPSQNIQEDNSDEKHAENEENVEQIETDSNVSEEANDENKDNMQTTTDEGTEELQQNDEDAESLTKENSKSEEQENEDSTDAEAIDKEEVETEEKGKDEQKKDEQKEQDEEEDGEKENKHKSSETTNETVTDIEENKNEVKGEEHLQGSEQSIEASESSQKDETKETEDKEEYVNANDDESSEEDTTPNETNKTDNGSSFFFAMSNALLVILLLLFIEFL

O=c1[nH]c2ccc(Cl)cc2c(NC2CN3CCC2CC3)c1-c1nc2ccccc2[nH]1 (stereo unspecified) [CHIR-124]
2.95 µM: UniProt O77344
> 20 µM: all other assays above
